According to ChEMBL document CHEMBL1133882, “Benzyloxybenzaldehyde analogues as novel adenylyl cyclase activators” (Bioorg Med Chem Lett, 2001):

Assays:
Assay type in all cases: functional
[1] = target: Adenylate cyclase (Homo sapiens) (UniProt Q8NFM4+O60503+Q08828+P40145+O60266+O95622+O43306+Q08462+P51828); experiment: Effect of compound on cellular c-AMP levels by activation of Adenylate cyclase
[2] = Ratio of cAMP-elevating activity relative to forskolin
Rattus norvegicus = experiment: In vitro inhibitory effect on neutrophil superoxide formation isolated from pentobarbital-anesthetized rats

C=C[C@@]1(C)CC(=O)[C@]2(O)[C@@]3(C)[C@@H](O)CCC(C)(C)[C@@H]3[C@H](O)[C@H](OC(C)=O)[C@@]2(C)O1
Activity (pM (2*10e6*cells)-1) [1]: < 1.23 | Ratio [2]: 1

CN1CCN(CCCN2c3ccccc3Sc3ccc(C(F)(F)F)cc32)CC1 [TRIFLUOPERAZINE]
IC50 (Rattus norvegicus): 14.7 µM

CC(=O)c1ccccc1OCc1ccccc1
Activity (pM (2*10e6*cells)-1) [1]: 0.26 | Ratio [2]: 0.22 | IC50 (Rattus norvegicus): 12.8 µM

NC(=O)c1ccccc1OCc1ccccc1
Activity (pM (2*10e6*cells)-1) [1]: 0.29 | Ratio [2]: 0.24 | IC50 (Rattus norvegicus): 19.8 µM

O=Cc1ccccc1OCc1ccccc1
Activity (pM (2*10e6*cells)-1) [1]: 1.3 | Ratio [2]: 1.1 | IC50 (Rattus norvegicus): 15.6 µM

O=Cc1cccc(OCc2ccccc2)c1
Activity (pM (2*10e6*cells)-1) [1]: 0.56 | Ratio [2]: 0.46 | IC50 (Rattus norvegicus): > 30 µM

O=Cc1ccc(OCc2ccccc2)cc1
Activity (pM (2*10e6*cells)-1) [1]: 0.26 | Ratio [2]: 0.22 | IC50 (Rattus norvegicus): 14.8 µM
